Test results from PubChem BioAssay (NCI).
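Interpolation was linear, between the two tested concentrations surrounding the appropriate level; five concentrations were tested over 48 hours in 96-well plates. TGI is the concentration that stops growth completely.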

Columns and labels:
Assay in all cases: inhibition of tumour cell growth, NCI panel, 48 h
786-0 renal = test system: 786-0 renal
A498 renal = test system: A498 renal
A549 NSCLC = test system: A549 NSCLC
ACHN renal = test system: ACHN renal
BT-549 breast = test system: BT-549 breast
CAKI-1 renal = test system: CAKI-1 renal
CCRF-CEM leukemia = test system: CCRF-CEM leukemia
COLO 205 colon = test system: COLO 205 colon
DU-145 prostate = test system: DU-145 prostate
EKVX NSCLC = test system: EKVX NSCLC
HCC-2998 colon = test system: HCC-2998 colon
HCT-116 colon = test system: HCT-116 colon
HCT-15 colon = test system: HCT-15 colon
HL-60(TB) leukemia = test system: HL-60(TB) leukemia
HOP-92 NSCLC = test system: HOP-92 NSCLC
HS 578T breast = test system: HS 578T breast
HT29 colon = test system: HT29 colon
IGROV1 ovarian = test system: IGROV1 ovarian
K-562 leukemia = test system: K-562 leukemia
KM12 colon = test system: KM12 colon
M14 melanoma = test system: M14 melanoma
MALME-3M melanoma = test system: MALME-3M melanoma
MDA-MB-231 breast = test system: MDA-MB-231 breast
MDA-MB-435 = test system: MDA-MB-435
MDA-N = test system: MDA-N
MOLT-4 leukemia = test system: MOLT-4 leukemia
NCI-H226 lung = test system: NCI-H226 lung
NCI-H23 lung = test system: NCI-H23 lung
NCI-H460 lung = test system: NCI-H460 lung
NCI-H522 lung = test system: NCI-H522 lung
NCI/ADR-RES ovarian = test system: NCI/ADR-RES ovarian
OVCAR-3 ovarian = test system: OVCAR-3 ovarian
OVCAR-4 ovarian = test system: OVCAR-4 ovarian
OVCAR-5 ovarian = test system: OVCAR-5 ovarian
OVCAR-8 ovarian = test system: OVCAR-8 ovarian
PC-3 prostate = test system: PC-3 prostate
RPMI-8226 leukemia = test system: RPMI-8226 leukemia
RXF 393 renal = test system: RXF 393 renal
SF-268 CNS = test system: SF-268 CNS
SF-295 CNS = test system: SF-295 CNS
SK-MEL-2 melanoma = test system: SK-MEL-2 melanoma
SK-MEL-28 melanoma = test system: SK-MEL-28 melanoma
SK-MEL-5 melanoma = test system: SK-MEL-5 melanoma
SK-OV-3 ovarian = test system: SK-OV-3 ovarian
SN12C renal = test system: SN12C renal
SNB-19 CNS = test system: SNB-19 CNS
SNB-75 CNS = test system: SNB-75 CNS
SW-620 colon = test system: SW-620 colon
TK-10 renal = test system: TK-10 renal
U251 CNS = test system: U251 CNS
UACC-257 melanoma = test system: UACC-257 melanoma
UACC-62 melanoma = test system: UACC-62 melanoma
UO-31 renal = test system: UO-31 renal

Measured: TGI

CC(=O)Nc1c(S(=O)(=O)c2ccccc2)c(C)c(C)n1Cc1ccccc1
> 100 µM: all assays above
